Test results published in article PMC11868595, “Safety, pharmacokinetics and efficacy of HA121-28 in patients with advanced solid tumors and RET fusion-positive non-small-cell lung cancer: a multicenter, open-label, single-arm phase 1/2 trial” (Signal Transduction and Targeted Therapy, 2025).
Marks after values point to notes of the source that are not given here.

Columns and labels:
PDGFRβ = PDGFRβ (Homo sapiens, UniProt P09619); experiment: Tyrosine kinase inhibition; type: biochemical
Single-dose toxicity = type: in vivo, SD rats; conditions: single oral gavage
Experimental: mg/kg. The maximum tolerated dose (MTD) was 500 mg/kg. Gastrointestinal, hepatic, and immune system toxicity may have contributed to the rat deaths.
2.2. Dose expansion phase
[…] To investigate the efficacy of HA121- 28 tablets in patients with advanced solid tumors.
This study is a single- arm, open- label, dose-escalation, and dose-expansion phase 1 clinical studywith single and multiple dosing.

C-KIT = C-KIT (Homo sapiens, UniProt P10721); experiment: Tyrosine kinase inhibition; type: biochemical
Sequence of C-KIT (P10721 26-976): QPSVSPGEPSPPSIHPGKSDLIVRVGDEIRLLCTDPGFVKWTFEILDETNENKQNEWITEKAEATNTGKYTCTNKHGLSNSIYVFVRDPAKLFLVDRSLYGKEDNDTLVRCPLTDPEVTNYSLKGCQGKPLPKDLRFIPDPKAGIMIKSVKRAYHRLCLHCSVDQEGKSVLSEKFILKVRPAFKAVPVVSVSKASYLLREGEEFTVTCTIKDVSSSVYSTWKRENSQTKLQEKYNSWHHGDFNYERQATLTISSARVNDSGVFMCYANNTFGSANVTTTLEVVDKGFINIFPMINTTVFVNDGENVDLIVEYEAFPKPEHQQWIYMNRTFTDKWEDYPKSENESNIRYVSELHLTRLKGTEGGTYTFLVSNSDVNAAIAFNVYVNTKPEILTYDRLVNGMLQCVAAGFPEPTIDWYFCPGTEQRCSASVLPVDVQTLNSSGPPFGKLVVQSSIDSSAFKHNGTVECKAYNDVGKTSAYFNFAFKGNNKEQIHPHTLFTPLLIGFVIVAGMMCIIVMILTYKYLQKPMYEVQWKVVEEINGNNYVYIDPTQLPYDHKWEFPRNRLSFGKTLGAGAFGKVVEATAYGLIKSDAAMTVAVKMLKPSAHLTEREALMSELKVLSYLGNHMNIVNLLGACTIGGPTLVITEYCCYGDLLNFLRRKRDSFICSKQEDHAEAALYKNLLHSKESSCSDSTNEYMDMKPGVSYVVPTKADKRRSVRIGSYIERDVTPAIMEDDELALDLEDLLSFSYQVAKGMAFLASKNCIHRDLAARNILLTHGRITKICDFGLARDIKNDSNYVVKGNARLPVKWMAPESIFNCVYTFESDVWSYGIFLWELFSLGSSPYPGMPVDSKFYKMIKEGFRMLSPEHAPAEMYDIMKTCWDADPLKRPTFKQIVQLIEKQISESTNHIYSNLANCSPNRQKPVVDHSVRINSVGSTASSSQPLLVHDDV

[1] = Phase 1 clinical pharmacokinetics in plasma; type: in vivo, human; conditions: for AUC0-24, Mean (CV%) / AUC0-t, Mean (CV%) / CLz/F, Mean (CV%) / Cmax, Mean (CV%) / Tmax, median [Min-Max] / Vz/F, Mean (CV%) / t1/2z, Mean (CV%): Single dose; for AUC0-24,ss, Mean (CV%) / Cmax,ss, Mean (CV%) / Tmax,ss, median [Min-Max]: Steady State
CFPAC-1 cells = experiment: Tumor cell proliferation in vitro; type: cell-based
HUVEC cells = conditions: 50 ng/mL VEGF165
ALK1 = ALK1 (Homo sapiens, UniProt P37023); experiment: Tyrosine kinase inhibition; type: biochemical
Sequence of ALK1 (P37023 142-503 limits assumed): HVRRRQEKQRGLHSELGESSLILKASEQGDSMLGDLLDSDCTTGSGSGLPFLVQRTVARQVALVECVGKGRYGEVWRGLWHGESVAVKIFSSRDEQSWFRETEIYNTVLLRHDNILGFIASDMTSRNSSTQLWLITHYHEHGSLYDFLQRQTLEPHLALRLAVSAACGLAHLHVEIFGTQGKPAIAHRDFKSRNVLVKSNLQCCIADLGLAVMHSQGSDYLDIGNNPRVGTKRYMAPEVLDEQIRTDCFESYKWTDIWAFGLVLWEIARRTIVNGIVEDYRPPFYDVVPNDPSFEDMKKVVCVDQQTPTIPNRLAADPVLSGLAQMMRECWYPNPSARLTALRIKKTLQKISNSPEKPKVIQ

EGFR = EGFR (Homo sapiens, UniProt P00533); experiment: Tyrosine kinase inhibition; type: biochemical
Sequence of EGFR (P00533 25-1210): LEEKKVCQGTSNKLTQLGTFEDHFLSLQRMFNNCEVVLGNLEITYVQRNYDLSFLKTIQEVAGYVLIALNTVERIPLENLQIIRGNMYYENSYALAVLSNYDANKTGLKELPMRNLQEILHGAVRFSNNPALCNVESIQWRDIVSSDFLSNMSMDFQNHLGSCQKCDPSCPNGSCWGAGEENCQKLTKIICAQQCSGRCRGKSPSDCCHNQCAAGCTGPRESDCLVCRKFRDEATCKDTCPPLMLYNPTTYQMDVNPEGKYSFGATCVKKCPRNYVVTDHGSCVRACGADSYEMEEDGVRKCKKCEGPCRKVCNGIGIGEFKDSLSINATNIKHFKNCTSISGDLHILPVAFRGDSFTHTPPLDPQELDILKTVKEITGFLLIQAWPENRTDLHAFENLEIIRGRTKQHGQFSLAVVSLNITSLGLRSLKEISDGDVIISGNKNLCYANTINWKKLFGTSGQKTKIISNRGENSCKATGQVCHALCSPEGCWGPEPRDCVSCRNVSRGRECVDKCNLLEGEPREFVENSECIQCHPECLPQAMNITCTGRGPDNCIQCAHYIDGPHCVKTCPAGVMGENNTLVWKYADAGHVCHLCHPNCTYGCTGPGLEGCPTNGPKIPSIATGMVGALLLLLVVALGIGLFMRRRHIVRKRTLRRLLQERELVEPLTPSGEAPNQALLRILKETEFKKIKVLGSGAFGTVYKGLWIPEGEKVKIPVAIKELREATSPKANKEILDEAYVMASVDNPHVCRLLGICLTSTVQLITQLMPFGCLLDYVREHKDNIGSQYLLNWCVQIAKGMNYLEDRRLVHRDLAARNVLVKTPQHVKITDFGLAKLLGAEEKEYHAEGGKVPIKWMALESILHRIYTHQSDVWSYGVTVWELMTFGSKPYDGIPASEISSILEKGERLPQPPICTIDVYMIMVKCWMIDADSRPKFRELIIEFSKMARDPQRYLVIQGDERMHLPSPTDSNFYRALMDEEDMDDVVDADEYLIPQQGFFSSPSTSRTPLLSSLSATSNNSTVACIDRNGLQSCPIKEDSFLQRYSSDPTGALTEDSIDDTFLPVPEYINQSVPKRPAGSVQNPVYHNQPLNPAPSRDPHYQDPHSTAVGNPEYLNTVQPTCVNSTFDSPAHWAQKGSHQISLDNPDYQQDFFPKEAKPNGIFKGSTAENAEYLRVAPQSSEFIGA

FMS = FMS (Homo sapiens, UniProt P07333); experiment: Tyrosine kinase inhibition; type: biochemical
Sequence of FMS (P07333 20-972): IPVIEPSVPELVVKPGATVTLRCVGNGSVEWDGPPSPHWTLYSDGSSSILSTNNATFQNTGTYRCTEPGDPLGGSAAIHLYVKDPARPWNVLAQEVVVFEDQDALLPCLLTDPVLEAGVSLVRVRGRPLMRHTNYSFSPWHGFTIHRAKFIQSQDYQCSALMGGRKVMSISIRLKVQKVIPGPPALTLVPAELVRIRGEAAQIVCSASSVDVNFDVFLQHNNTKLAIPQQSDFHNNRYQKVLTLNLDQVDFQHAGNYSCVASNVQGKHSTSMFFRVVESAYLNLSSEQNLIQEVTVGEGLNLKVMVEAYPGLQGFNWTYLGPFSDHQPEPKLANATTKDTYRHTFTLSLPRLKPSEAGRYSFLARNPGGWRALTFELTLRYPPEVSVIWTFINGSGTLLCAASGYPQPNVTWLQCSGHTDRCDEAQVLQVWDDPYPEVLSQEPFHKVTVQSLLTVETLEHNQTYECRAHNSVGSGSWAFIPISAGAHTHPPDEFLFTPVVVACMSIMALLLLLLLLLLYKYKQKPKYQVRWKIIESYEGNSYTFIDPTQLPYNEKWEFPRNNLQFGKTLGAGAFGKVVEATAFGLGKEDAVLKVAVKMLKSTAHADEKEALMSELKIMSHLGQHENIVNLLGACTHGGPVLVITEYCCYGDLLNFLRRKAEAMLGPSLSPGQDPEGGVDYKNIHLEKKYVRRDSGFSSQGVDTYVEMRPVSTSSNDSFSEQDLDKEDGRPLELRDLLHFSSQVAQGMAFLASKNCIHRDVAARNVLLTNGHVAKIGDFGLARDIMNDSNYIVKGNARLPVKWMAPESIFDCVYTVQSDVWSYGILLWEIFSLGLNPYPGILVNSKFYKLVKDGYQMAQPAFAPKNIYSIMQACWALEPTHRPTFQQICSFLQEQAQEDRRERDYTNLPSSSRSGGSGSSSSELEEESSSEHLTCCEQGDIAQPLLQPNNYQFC

[2] = system: human esophageal cancer ECA-109 tumors; experiment: ECA-109 tumors in nude mice; type: in vivo

Sequence of PDGFRβ (P09619 33-1106): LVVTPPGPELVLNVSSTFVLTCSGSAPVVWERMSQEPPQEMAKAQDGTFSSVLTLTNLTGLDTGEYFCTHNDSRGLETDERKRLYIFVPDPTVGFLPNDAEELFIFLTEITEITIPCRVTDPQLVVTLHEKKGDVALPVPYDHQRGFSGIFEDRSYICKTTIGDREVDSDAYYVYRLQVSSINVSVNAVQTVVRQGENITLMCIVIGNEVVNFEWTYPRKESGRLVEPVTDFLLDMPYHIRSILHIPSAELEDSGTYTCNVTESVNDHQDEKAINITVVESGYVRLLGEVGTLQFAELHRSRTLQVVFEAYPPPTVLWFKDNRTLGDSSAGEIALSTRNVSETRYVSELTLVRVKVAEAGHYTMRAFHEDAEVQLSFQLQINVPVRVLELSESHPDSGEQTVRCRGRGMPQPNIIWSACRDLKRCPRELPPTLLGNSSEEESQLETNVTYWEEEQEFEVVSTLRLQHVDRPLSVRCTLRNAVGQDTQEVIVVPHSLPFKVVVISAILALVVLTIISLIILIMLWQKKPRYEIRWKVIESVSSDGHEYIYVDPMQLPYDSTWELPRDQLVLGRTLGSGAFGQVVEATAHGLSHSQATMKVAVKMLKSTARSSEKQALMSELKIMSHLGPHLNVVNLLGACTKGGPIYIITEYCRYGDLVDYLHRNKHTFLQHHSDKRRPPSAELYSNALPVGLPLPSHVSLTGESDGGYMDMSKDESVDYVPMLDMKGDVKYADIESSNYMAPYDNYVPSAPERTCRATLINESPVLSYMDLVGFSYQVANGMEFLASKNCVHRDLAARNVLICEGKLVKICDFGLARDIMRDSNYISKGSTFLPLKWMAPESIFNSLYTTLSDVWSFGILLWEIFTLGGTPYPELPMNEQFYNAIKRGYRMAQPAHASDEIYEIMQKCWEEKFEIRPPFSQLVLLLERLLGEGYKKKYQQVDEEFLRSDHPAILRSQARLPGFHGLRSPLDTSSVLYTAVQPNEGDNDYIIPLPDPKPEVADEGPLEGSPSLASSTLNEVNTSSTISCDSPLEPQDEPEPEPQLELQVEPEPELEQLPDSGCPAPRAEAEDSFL

Compound: COc1cc2c(Nc3ccc(Br)cc3F)ncnc2cc1OCCCCN(C)C.Cl.Cl [HA121-28, N-(4-bromo-2-fluorophenyl)-7-(4-(dimethylamino)butoxy)-6-methoxy quinazolin-4-amine dihydrochloride]
- IC50 (PDGFRβ): 165 nM
- maximum tolerated dose (MTD) (Single-dose toxicity): 500 mg/kg
- IC50 (C-KIT): > 10 µM
- AUC0-24, Mean (CV%) ([1]; 25 mg (N=1)): 237.1 (-) h*ng/mL
- AUC0-t, Mean (CV%) ([1]; 25 mg (N=1)): 906.8 (-) h*ng/mL
- CLz/F, Mean (CV%) ([1]; 25 mg (N=1)): 18.5 (-) L/h
- Cmax, Mean (CV%) ([1]; 25 mg (N=1)): 15.6 (-) ng/mL
- Tmax, median [Min-Max] ([1]; 25 mg (N=1)): 4 [4,4] h
- Vz/F, Mean (CV%) ([1]; 25 mg (N=1)): 2971.7 (-) L
- t1/2z, Mean (CV%) ([1]; 25 mg (N=1)): 111.2 (-) h
- AUC0-24, Mean (CV%) ([1]; 50 mg (N=1)): 283.0 (-) h*ng/mL
- AUC0-t, Mean (CV%) ([1]; 50 mg (N=1)): 1645.1 (-) h*ng/mL
- CLz/F, Mean (CV%) ([1]; 50 mg (N=1)): 19.5 (-) L/h
- Cmax, Mean (CV%) ([1]; 50 mg (N=1)): 15.6 (-) ng/mL
- Tmax, median [Min-Max] ([1]; 50 mg (N=1)): 24 [24,24] h
- Vz/F, Mean (CV%) ([1]; 50 mg (N=1)): 3137.7 (-) L
- t1/2z, Mean (CV%) ([1]; 50 mg (N=1)): 111.6 (-) h
- AUC0-24, Mean (CV%) ([1]; 100 mg (N=4)): 725.9 (306.5) h*ng/mL
- AUC0-t, Mean (CV%) ([1]; 100 mg (N=4)): 3460.0 (1126.6) h*ng/mL
- CLz/F, Mean (CV%) ([1]; 100 mg (N=4)): 18.8 (4.8) L/h
- Cmax, Mean (CV%) ([1]; 100 mg (N=4)): 46.4 (27.0) ng/mL
- Tmax, median [Min-Max] ([1]; 100 mg (N=4)): 6 [4-24] h
- Vz/F, Mean (CV%) ([1]; 100 mg (N=4)): 2303.3 (37.5) L
- t1/2z, Mean (CV%) ([1]; 100 mg (N=4)): 89.1 (23.8) h
- AUC0-24, Mean (CV%) ([1]; 200 mg (N=4)): 1884.6 (514.6) h*ng/mL
- AUC0-t, Mean (CV%) ([1]; 200 mg (N=4)): 7763.0 (2539.2) h*ng/mL
- CLz/F, Mean (CV%) ([1]; 200 mg (N=4)): 21.6 (7.0) L/h
- Cmax, Mean (CV%) ([1]; 200 mg (N=4)): 115.5 (32.7) ng/mL
- Tmax, median [Min-Max] ([1]; 200 mg (N=4)): 8 [8-10] h
- Vz/F, Mean (CV%) ([1]; 200 mg (N=4)): 2627.1 (1416.0) L
- t1/2z, Mean (CV%) ([1]; 200 mg (N=4)): 80.7 (15.3) h
- AUC0-24, Mean (CV%) ([1]; 300 mg (N=4)): 3037.9 (854.0) h*ng/mL
- AUC0-t, Mean (CV%) ([1]; 300 mg (N=4)): 11276.6 (2463.8) h*ng/mL
- CLz/F, Mean (CV%) ([1]; 300 mg (N=4)): 19.1 (3.8) L/h
- Cmax, Mean (CV%) ([1]; 300 mg (N=4)): 193.0 (70.1) ng/mL
- Tmax, median [Min-Max] ([1]; 300 mg (N=4)): 8 [2-8] h
- Vz/F, Mean (CV%) ([1]; 300 mg (N=4)): 2307.1 (724.2) L
- t1/2z, Mean (CV%) ([1]; 300 mg (N=4)): 83.1 (16.6) h
- AUC0-24, Mean (CV%) ([1]; 450 mg (N=7)): 6271.3 (2275.9) h*ng/mL
- AUC0-t, Mean (CV%) ([1]; 450 mg (N=7)): 20218.4 (7301.9) h*ng/mL
- CLz/F, Mean (CV%) ([1]; 450 mg (N=7)): 16.2 (6.6) L/h
- Cmax, Mean (CV%) ([1]; 450 mg (N=7)): 374.7 (140.6) ng/mL
- Tmax, median [Min-Max] ([1]; 450 mg (N=7)): 8 [4-8] h
- Vz/F, Mean (CV%) ([1]; 450 mg (N=7)): 2009.5 (706.2) L
- t1/2z, Mean (CV%) ([1]; 450 mg (N=7)): 87.6 (11.7) h
- AUC0-24, Mean (CV%) ([1]; 600 mg (N=5)): 8403.6 (4593.9) h*ng/mL
- AUC0-t, Mean (CV%) ([1]; 600 mg (N=5)): 26818.4 (14650.1) h*ng/mL
- CLz/F, Mean (CV%) ([1]; 600 mg (N=5)): 19.7 (8.1) L/h
- Cmax, Mean (CV%) ([1]; 600 mg (N=5)): 500.0 (224.3) ng/mL
- Tmax, median [Min-Max] ([1]; 600 mg (N=5)): 8 [4-8] h
- Vz/F, Mean (CV%) ([1]; 600 mg (N=5)): 2163.4 (719.0) L
- t1/2z, Mean (CV%) ([1]; 600 mg (N=5)): 80.8 (19.4) h
- AUC0-24, Mean (CV%) ([1]; 800 mg (N=3)): 9721.8 (2598.4) h*ng/mL
- AUC0-t, Mean (CV%) ([1]; 800 mg (N=3)): 33030.6 (10820.6) h*ng/mL
- CLz/F, Mean (CV%) ([1]; 800 mg (N=3)): 19.9 (9.2) L/h
- Cmax, Mean (CV%) ([1]; 800 mg (N=3)): 610.0 (200.1) ng/mL
- Tmax, median [Min-Max] ([1]; 800 mg (N=3)): 8 [4-8] h
- Vz/F, Mean (CV%) ([1]; 800 mg (N=3)): 2001.6 (613.2) L
- t1/2z, Mean (CV%) ([1]; 800 mg (N=3)): 74.1 (24.6) h
- AUC0-24,ss, Mean (CV%) ([1]; 25 mg (N=1)): 1629.1 (-) h*ng/mL
- Cmax,ss, Mean (CV%) ([1]; 25 mg (N=1)): 77.2 (-) ng/mL
- Tmax,ss, median [Min-Max] ([1]; 25 mg (N=1)): 2 [2,2] h
- AUC0-24,ss, Mean (CV%) ([1]; 50 mg (N=1)): 2728.6 (-) h*ng/mL
- Cmax,ss, Mean (CV%) ([1]; 50 mg (N=1)): 122.0 (-) ng/mL
- Tmax,ss, median [Min-Max] ([1]; 50 mg (N=1)): 4 [4,4] h
- AUC0-24,ss, Mean (CV%) ([1]; 100 mg (N=4)): 4785.0 (1808.2) h*ng/mL
- Cmax,ss, Mean (CV%) ([1]; 100 mg (N=4)): 219.0 (75.2) ng/mL
- Tmax,ss, median [Min-Max] ([1]; 100 mg (N=4)): 8 [4-8] h
- AUC0-24,ss, Mean (CV%) ([1]; 200 mg (N=4)): 11332.7 (4944.0) h*ng/mL
- Cmax,ss, Mean (CV%) ([1]; 200 mg (N=4)): 550.0 (229.2) ng/mL
- Tmax,ss, median [Min-Max] ([1]; 200 mg (N=4)): 8 [8-8] h
- AUC0-24,ss, Mean (CV%) ([1]; 300 mg (N=4)): 12969.9 (1048.1) h*ng/mL
- Cmax,ss, Mean (CV%) ([1]; 300 mg (N=4)): 635.3 (30.1) ng/mL
- Tmax,ss, median [Min-Max] ([1]; 300 mg (N=4)): 4 [4-4] h
- AUC0-24,ss, Mean (CV%) ([1]; 450 mg (N=7)): 18460.0 (3291.4) h*ng/mL
- Cmax,ss, Mean (CV%) ([1]; 450 mg (N=7)): 945.8 (189.0) ng/mL
- Tmax,ss, median [Min-Max] ([1]; 450 mg (N=7)): 6 [4-8] h
- AUC0-24,ss, Mean (CV%) ([1]; 600 mg (N=5)): 27965.4 (13872.8) h*ng/mL
- Cmax,ss, Mean (CV%) ([1]; 600 mg (N=5)): 1453.0 (825.0) ng/mL
- Tmax,ss, median [Min-Max] ([1]; 600 mg (N=5)): 4 [4-8] h
- AUC0-24,ss, Mean (CV%) ([1]; 800 mg (N=3)): 23180.1 (3336.5) h*ng/mL
- Cmax,ss, Mean (CV%) ([1]; 800 mg (N=3)): 1067.0 (216.4) ng/mL
- Tmax,ss, median [Min-Max] ([1]; 800 mg (N=3)): 6 [4-8] h
- time to steady state ([1]; multiple dosing): two
- IC50 (CFPAC-1 cells): 207 ± 38.3 nM
- IC50 (HUVEC cells): 65.4 nM
- IC50 (ALK1): 2590 nM
- IC50 (EGFR): 46.6 nM
- IC50 (FMS): 2910 nM
- RTV ±SD ([2]; 12.5 mg/kg): 7.0±2.8
- T/C ([2]; 12.5 mg/kg): 68.6%
- Terminal Tumor Volume ([2]; 12.5 mg/kg): 1,684.6±1,034.3 mm^3
- RTV ±SD ([2]; 25 mg/kg): 3.1±1.6
- T/C ([2]; 25 mg/kg): 29.8%
- Terminal Tumor Volume ([2]; 25 mg/kg): 693.5±538.6*^▲ mm^3
- RTV ±SD ([2]; 50 mg/kg): 2.2±0.4
- T/C ([2]; 50 mg/kg): 21.6%
- Terminal Tumor Volume ([2]; 50 mg/kg): 491.8±77.4** mm^3
